The text below walks through data of publication PMC6345978, “The bacterial MrpORP is a novel Mrp/NBP35 protein involved in iron-sulfur biogenesis” (Scientific Reports, 2019).

Experiment [1] concerns the target T1, MrpORP (Dde3202) (Oleidesulfovibrio alaskensis, UniProt Q30WF0).
T1 construct: gene Dde_3202; full length, His-tagged (pJF119-3202His), produced in E. coli TG1, isolated aerobically and reconstituted; 43 kDa; [4Fe-4S] proposed between two monomers
T1 sequence (Q30WF0 1-415): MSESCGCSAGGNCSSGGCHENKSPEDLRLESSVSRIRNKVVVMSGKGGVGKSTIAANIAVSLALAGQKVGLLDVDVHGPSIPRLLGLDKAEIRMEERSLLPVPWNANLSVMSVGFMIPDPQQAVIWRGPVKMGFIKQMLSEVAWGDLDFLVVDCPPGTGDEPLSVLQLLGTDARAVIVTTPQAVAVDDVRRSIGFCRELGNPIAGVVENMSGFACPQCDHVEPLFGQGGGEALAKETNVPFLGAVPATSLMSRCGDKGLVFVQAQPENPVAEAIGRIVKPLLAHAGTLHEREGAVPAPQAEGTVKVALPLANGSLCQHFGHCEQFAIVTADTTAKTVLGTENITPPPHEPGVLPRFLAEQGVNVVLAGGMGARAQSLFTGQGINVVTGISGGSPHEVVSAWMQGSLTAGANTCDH
The experiment is described as follows: UV-visible spectroscopy after in vitro Fe-S reconstitution. It counts as binding. The following applies: anaerobic, DTT, Fe2+ with cysteine/IscS; a second cluster in the Di-Nase domain also contributes.

Experiment [2] concerns the target T2, Orp3-Orp4-Orp8 complex (Nitratidesulfovibrio vulgaris, UniProt Q72A93+Q72A94).
T2 construct: gene DVU_2103; His-tagged Orp3 (pBMC6C3::2103His) co-purified with Orp4 and Orp8 from DvH, metal centres removed; with Orp8, dinitrogenase iron-molybdenum cofactor biosynthesis domain protein
T2 sequence (Q72A94 1-287): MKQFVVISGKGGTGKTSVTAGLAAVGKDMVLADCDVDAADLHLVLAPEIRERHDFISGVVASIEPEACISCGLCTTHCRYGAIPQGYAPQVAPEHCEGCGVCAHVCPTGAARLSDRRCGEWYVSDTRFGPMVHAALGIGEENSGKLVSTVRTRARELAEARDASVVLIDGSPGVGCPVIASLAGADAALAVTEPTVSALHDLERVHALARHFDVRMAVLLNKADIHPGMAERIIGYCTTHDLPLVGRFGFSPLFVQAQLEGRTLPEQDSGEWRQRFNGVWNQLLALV
T2 sequence (Q72A93 1-301): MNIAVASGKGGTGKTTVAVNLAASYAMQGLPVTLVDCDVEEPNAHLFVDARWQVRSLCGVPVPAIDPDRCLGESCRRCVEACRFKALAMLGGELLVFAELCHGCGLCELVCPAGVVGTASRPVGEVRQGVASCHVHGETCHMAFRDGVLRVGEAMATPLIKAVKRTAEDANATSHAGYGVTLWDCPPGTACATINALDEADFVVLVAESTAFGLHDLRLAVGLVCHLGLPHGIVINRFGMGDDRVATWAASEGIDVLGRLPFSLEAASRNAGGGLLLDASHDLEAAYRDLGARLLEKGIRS
T2 sequence (Q72A89 1-119 partner): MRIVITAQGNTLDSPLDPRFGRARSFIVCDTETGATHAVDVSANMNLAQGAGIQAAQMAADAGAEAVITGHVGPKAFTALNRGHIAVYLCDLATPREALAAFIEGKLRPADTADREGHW
The experiment is described as follows: Fe-S cluster transfer from holo-MrpORP, Ni-NTA separation, UV-visible spectroscopy. Format: binding. The following applies: anaerobic, DTT; cluster type from sequence motifs of Orp3 and Orp4, distribution between chains not resolved.

For [4Fe-4S] cluster, the A400/A280 came to 0.3 in experiment [1] and 0.42 in experiment [2].
